Here are results for nine compounds from patent US20180055877A1, “THERAPEUTIC NANOPARTICLES AND METHODS THEREOF” (priority 2014, published 2018).

Assay [1] has as its system T. rubrum. Description: aPI in the presence of ROS and RNS scavengers, CFU. Particulars: scavenger added before aPI with curcumin photosensitizer. Format: cell-based.
Procedure: (§4) Different ROS and RNS scavengers were used to evaluate the effect of radical stress inhibition on aPI efficacy. […] Scavengers were added to fungal suspensions immediately before initiation of aPI and incubated for 1 h with RPMI 1640 without phenol red plus 2% glucose at 28° C. To evaluate fungal viability, 150 μL of the fungal suspensions were plated onto PDA, and incubated at 28° C. for 72 hours. The HT TitierTACS™ assay kit (Trevigen, Gaithersburg, Md., USA) was used to evaluate the occurrence of apoptosis after aPI.
The next assay relates to T. rubrum microconidia. Description: Antimicrobial photodynamic inhibition (aPI) optimization, CFU. Format: cell-based. As to the method: In this example, a curcumin (Sigma-Aldrich, St. […] For susceptibility testing, the stock was dilution in RPMI 1640 medium to a final concentration of 40 μg/mL. For aPI, the stock was diluted in PBS to concentrations of 1.0, 10 and 100 μg/mL. […] A comparative concentration of curcumin incorporated in nanoparticles was used based on spectrophotometric release curves showing that each mg of curc-np contained 10 μg of curcumin. For susceptibility testing, 8 mg of curc-np was suspended in 1 mL of PBS and diluted in RPMI to a final concentration of […] (equivalent to 40 μg/mL of encapsulated curcumin). For aPI, 10 mg of curc-np was suspended in 1 mL of PBS and serially diluted to obtain 10 μg/mL, 100 μg/mL and 10 mg/L of curc-np (equivalent to 1.0, 10, and 100 μg/mL of encapsulated curcumin). The light source used was BLU-U® light model 4070 (DUSA pharmaceuticals, Wilmington, Mass., USA), which emits blue light at a wavelength of 417±5 nm. The doses used were 10 J/cm^2 (17 minutes), 20 J/cm^2 (34 minutes), and 40 J/cm^2 (68 minutes). BLU-U light was chosen as the light source due to its resonance with curcumin. For aPI optimization, fungal cells were submitted to different treatment conditions by varying the photosensitizer (PS) concentration and light dose, as described in Table 1, below. PS without photoactivation and blue light alone served as dark toxicity and light controls, respectively. […] [table]

The test system of assay [2] is T. rubrum. Description: Susceptibility testing (microdilution, CLSI M38-A) and growth curves. Format: cell-based. Here is the method: Susceptibility of T. rubrum to ground-state curcumin was tested by a microdilution method according to CLSI M38-A.49, 52 Itraconazole concentration ranged from 0.015 μg/mL to 8 μg/mL and curcumin and curc-np concentrations from 0.0012 μg/mL to 20 μg/mL. A 1% DMSO solution in control medium was evaluated. The MIC value was defined as the concentration required for 80% […] compared to untreated control. 12, 49 Growth kinetics of ground-state curcumin compared to aPI was also evaluated. Growth was evaluated for 7 days at 28° C. using a Bioscreen C growth curve system (Growth Curves USA, Piscataway, N.J., USA).

Assay [3] deals with T. rubrum. Description: Intracellular ROS and RNS after aPI, flow cytometry. Format: cell-based. Particulars: vs untreated. Here is the method: Following aPI, samples were incubated with fluorescent probes for 30 minutes at 28° C., and subsequently analyzed with flow cytometry (Becton Dickinson™ LSRII, USA) using a 530/30 nm band pass filter for fluorescence detection. The Mean Fluorescence Intensity (MFI) was considered to determine radical production. Data analyses were performed using FlowJo 10.1 software.

A further assay relates to T. rubrum cells. Description: Apoptosis assay after aPI (HT TitierTACS kit). Particulars: vs untreated control. Format: cell-based.
Assay [4] has as its system J774.16 macrophages challenged with T. rubrum. The assay is described as follows: Phagocytosis assay: J774.16 macrophages challenged with T. rubrum and treated with aPI. Format: cell-based. Here is the method:
Macrophages were challenged with T. rubrum and treated with aPI to investigate the efficacy against infected mammalian cells. Specifically, J774.16 macrophages were grown at 37° C. with 10% CO2 in DMEM (Cellgro, Manassas, Va., USA). The fungal-macrophage cell proportion was 1:1, with 5.0×10^5 fungal cells to 5.0×10^5 macrophage cells. After challenging macrophages with T. rubrum microconidia, the cells were submitted to aPI, followed by incubation in the 10% CO2 chamber at 37° C. for 24 hours. The macrophages were lysed with cold distilled water and the lysate plated onto PDA and incubated at 28° C. for 72 hours.

In assay [5] the test system is T. rubrum. The assay is described as follows: In vivo antimicrobial photodynamic therapy (aPDT) pilot study. Set-up: species or system BALB/c mice. Particulars: 500 μg/mL in coconut oil, 10 J/cm^2 blue light, one treatment, CFU three days post treatment. As to the method: BALB/c mice were subcutaneously infected with T. rubrum. Seven days post-infection, mice (n=2 per group) were submitted to one treatment of aPDT, using 500 μg/mL of curcumin and curc-np suspended in coconut oil and 10 J/cm^2 of blue light. Pre-irradiation incubation time was 30 minutes, under light protection. Tissue was homogenized and CFUs quantified three days post treatment.

In assay [6] the test system is Pseudomonas aeruginosa, MRSA, Escherichia coli, Klebsiella pneumoniae. Particulars: same concentration as generated from the nanoparticles; cited from earlier work.
In the next assay the test system is E. coli clinical strains. Description: Bacterial growth susceptibility (OD600), E. coli. Particulars: all concentrations tested, up to 24 h, vs untreated. Format: cell-based. As to the method: (§1) In this example, 8 clinical strains each of MRSA and E. coli were evaluated. For each bacterial strain, one colony of bacteria grown on tryptic soy agar (TSA) was suspended in 1 mL tryptic soy broth (TSB). One μL aliquots were transferred to a 100-well honeycomb plate with 199 μL TSB. This TSB contained either 1, 2.5, 5, or 10 mg/mL SNO-CAP-np, or 2.5, 5, or 10 mM captopril, and controls included wells containing bacteria and TSB alone. The background absorbance of each SNO-CAP-np concentration was accounted for by wells containing SNO-CAP-np and TSB alone. No background absorbance was measured for captopril. […] All wells were incubated for 24 hours at 37° C. and growth was assessed by measuring optical density at 600 nm (OD600) with a microplate reader (Bioscreen C, Growth Curves USA, Piscataway, N.J.). Each condition was measured in triplicate, and averages were calculated along with standard error of the mean (SEM).
(§2) E. coli and MRSA strains were incubated at 37° C. with and without various concentrations of SNO-CAP-np (1, 2.5, 5, or 10 mg/mL) or captopril ([…]) for 24 h. […] Each data set represents averages for 8 strains of either E. coli or MRSA, and conditions for each strain were measured in triplicate. […]

Another assay relates to MRSA clinical strains. The assay is described as follows: Bacterial growth susceptibility (OD600), MRSA. Format: cell-based. Particulars: all concentrations tested, up to 24 h, vs untreated. As to the method: as §1, §2
For another assay, the system named is E. coli. Description: Colony-forming units (CFU) assay, E. coli. Format: cell-based. Particulars: 24 h. Here is the method:
(§3) Following 24 h incubation of E. coli and MRSA, 10 μL aspirates from wells of the honeycomb plates were transferred to Eppendorf tubes with 990 μL PBS and gently vortexed. Controls were collected in the same fashion from wells containing only bacteria and TSB. The suspensions were serially diluted in PBS so that final concentrations were 10^−6 of the incubated concentration, and 100 μL aliquots were plated on TSA plates for 24 h. As with the absorbance assays, 8 clinical strains each of MRSA and E. coli were evaluated (data represents an average for the 8 strains each of E. coli and MRSA), and all conditions were measured in triplicate. CFU's were counted and recorded. Percent survival was determined by comparing CFU counts of SNO-CAP-np- or captopril-treated bacteria to CFU counts of untreated bacteria. P-value <0.05 by unpaired t-test was considered significant.

A further assay relates to MRSA. Description: Colony-forming units (CFU) assay, MRSA. Particulars: 24 h. Format: cell-based. Here is the method: as §3

Values after ≈ are worked out from the molar mass of the structure shown.

Procedure for T. rubrum cells: as §4

On to `Cl.O=S(=O)([O-])c1ccc(-c2c3nc(c(-c4ccc(S(=O)(=O)O)cc4)c4ccc([nH]4)c(-c4ccc(S(=O)(=O)O)cc4)c4nc(c(-c5ccc(S(=O)(=O)O)cc5)c5ccc2[nH]5)C=C4)C=C3)cc1.[Fe]` [FeTPPs, 5,10,15,20-tetrakis-(4-sulfonatophenyl)-porphyrinato iron (III) chloride], for which the “inhibition of aPI efficacy by scavenger (fungal growth, CFU)” value (“inhibition of aPI efficacy by scavenger” below) in the assay with T. rubrum [1] is reported as “T. rubrum growth was relatively intact despite aPI”.
The same measure, in the same setting: for `CC(=O)C(=O)[O-].[Na+]` [sodium pyruvate] the value was “none of the concentrations”.
Still for that read-out and setting: for `O.O=S(=O)([O-])c1cc(O)c(O)c(S(=O)(=O)[O-])c1.[Na+].[Na+]` [Tiron, 4,5-dihydroxy-1,3-benzenedisulfonic acid disodiumsalt hydrate] the value was “none of the concentrations”.
As for `COc1cc(/C=C/C(=O)CC(=O)/C=C/c2ccc(O)c(OC)c2)ccc1O` [curcumin], the “fungal viability (CFU) after aPI, lowest PS concentration” value in the assay with T. rubrum microconidia (0.1 μg/mL, blue light 40 J/cm^2) was “did not differ significantly from untreated control”. For the same compound, the “T. rubrum growth (CFU) after aPI at varying light dose” value in the assay on T. rubrum microconidia (10 μg/mL, blue light 10, 20 and 40 J/cm^2) is recorded as “completely inhibited T. rubrum growth”. In addition, the “fungal growth (CFU) after aPI, highest concentration” value in the assay on T. rubrum microconidia (10 μg/mL, blue light 40 J/cm^2) was “complete growth inhibition”. The “fungal viability (CFU) after aPI” value with T. rubrum microconidia (1.0 and 10 μg/mL, blue light 40 J/cm^2, vs untreated) is recorded as “significantly decreased fungal viability”. Besides, in the assay on T. rubrum microconidia (three concentrations tested, no light), the “fungal burden, PS without photoactivation (dark toxicity)” value is on record as “did not reduce fungal burden”. The “fungal growth reduction, ground-state (no photoactivation)” value in the assay on T. rubrum [2] (seven-day incubation, 0.0012-20 μg/mL) is reported as “did not yield significant 80% reduction of fungal growth”. In addition, the “fold change in NO. production” value in the assay with T. rubrum [3] (DAF-FM probe) is 6 fold. The “fold-change in ONOO. production” value with T. rubrum [3] (DHR 123 probe) is given as 7 fold. For the same compound, in the assay on T. rubrum [3] (H2DCFDA probe), the “fold-change in ROS production” value turned out to be 17 fold. Also, in the assay on T. rubrum cells, the “apoptosis of T. rubrum cells after irradiation with blue light” value is reported as “significant trend towards increased apoptosis” and the “apoptosis of T. rubrum cells without irradiation” value is given as “did not induce apoptosis”. In addition, the “macrophage-induced destruction of T. rubrum cells, no aPI” value in assay [4] (ground state) was “caused a decrease in macrophage-induced destruction of T. rubrum cells”. Further, the “fungal burden (CFU) in macrophages after aPI” value in assay [4] (vs untreated, dark toxicity and blue light controls) is “significantly reduced fungal burden”. In the assay on T. rubrum [5], the “fungal burden compared to untreated control” value is “did not significantly reduce fungal burden”.
`CCC(C)n1ncn(-c2ccc(N3CCN(c4ccc(OCC5COC(Cn6cncn6)(c6ccc(Cl)cc6Cl)O5)cc4)CC3)cc2)c1=O` (centres unmarked) [itraconazole] returned an MIC in the assay on T. rubrum [2] (Trichophyton rubrum, clinical T. rubrum strain) of 0.25 µg/mL (≈ 0.354 µM).
With `OC[C@@H](O)[C@@H](O)[C@H](O)[C@H](O)CO` [D-mannitol], the “inhibition of aPI efficacy by scavenger” value in the assay with T. rubrum [1] is “none of the concentrations”.
For `N[C@@H](CCC(=O)N[C@@H](CSN=O)C(=O)NCC(=O)O)C(=O)O` [GSNO, S-nitrosoglutathione], in assay [6], the “antibacterial activity of an aliquot” value was “no antibacterial activity was observed”.
On to `CC1(C)N([O])C(c2ccc(C(=O)O)cc2)=[N+]([O-])C1(C)C` [carboxy-PTIO], for which the “inhibition of aPI efficacy by scavenger” value in the assay with T. rubrum [1] is “T. rubrum growth was relatively intact despite aPI”.
With `C[C@H](CS)C(=O)N1CCC[C@H]1C(=O)O` [captopril], the “effect on E. coli growth (OD600)” value with E. coli clinical strains is recorded as “showed an effect on E. coli growth in a dose dependent fashion”. For the same compound, the “effect on MRSA growth (OD600)” value in the assay with MRSA clinical strains is “did not have an effect”. Besides, the “average E. coli survival compared with untreated controls” value in the assay on E. coli (2.5 mM) is 85%; with E. coli (5 mM) it was 83.6%; in the assay on E. coli (10 mM), 59.1%. Further, the “average MRSA survival compared with untreated controls” value in the assay on MRSA (2.5 mM) is listed as 99.3%; in the assay on MRSA (5 mM), 95.6%; in the assay on MRSA (10 mM) it was 69.5%.
